What follows are compounds tested against T1, human PAH with the R408W mutation (Homo sapiens, UniProt P00439, R408W) (assay: Cell Based Phenylalanine Flux Assay). Details: A375 cells expressing human R408W PAH; 24 hrs compound incubation; 13C-Tyrosine by LC-MS; average where tested multiple times; read-out: AC50.
T1 construct: expressed in transfected cells
T1 sequence (P00439 1-452 R408W): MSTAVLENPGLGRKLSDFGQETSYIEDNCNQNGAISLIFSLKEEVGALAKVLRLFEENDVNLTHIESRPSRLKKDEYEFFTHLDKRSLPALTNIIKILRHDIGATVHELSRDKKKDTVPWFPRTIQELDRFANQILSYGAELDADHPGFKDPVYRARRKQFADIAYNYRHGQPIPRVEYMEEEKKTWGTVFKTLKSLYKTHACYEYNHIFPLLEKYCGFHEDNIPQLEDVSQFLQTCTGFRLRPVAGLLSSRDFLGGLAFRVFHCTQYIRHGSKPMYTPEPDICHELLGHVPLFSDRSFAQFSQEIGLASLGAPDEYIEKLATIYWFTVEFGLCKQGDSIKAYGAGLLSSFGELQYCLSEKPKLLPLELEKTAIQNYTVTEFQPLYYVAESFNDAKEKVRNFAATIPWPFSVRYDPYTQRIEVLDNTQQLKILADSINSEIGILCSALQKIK
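Note: after compound treatment, cells received sepiapterin plus isotope-labelled Phenylalanine for 4 hours, then labelled Tyrosine in the medium was quantified, 10-point 2-fold dilution series run in duplicate.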

Compound | AC50
Cn1cc(C(=O)N2CCc3[nH]cnc3[C@H]2c2cc3ccccn3n2)c(Cl)n1 [Example 665, (S)-(3-chloro-1-methyl-1H-pyrazol-4-yl)(4-(pyrazolo[1,5-a]pyridin-2-yl)-6,7-dihydro-1H-imidazo[4,5-c]pyridin-5(4H)-yl)methanone] | < 500 nM
O=C(c1nnc(-c2ccn(C(F)F)n2)o1)N1CCc2[nH]cnc2[C@H]1c1cc2ccccn2n1 [Example 666, (S)-(5-(1-(difluoromethyl)-1H-pyrazol-3-yl)-1,3,4-oxadiazol-2-yl)(4-(pyrazolo[1,5-a]pyridin-2-yl)-6,7-dihydro-1H-imidazo[4,5-c]pyridin-5(4H)-yl)methanone] | 500 to 1000 nM
O=C(c1nnc(-c2ccn(C(F)F)n2)o1)N1CCc2[nH]cnc2[C@@H]1c1cc2ccccn2n1 [Example 667, (R)-(5-(1-(difluoromethyl)-1H-pyrazol-3-yl)-1,3,4-oxadiazol-2-yl)(4-(pyrazolo[1,5-a]pyridin-2-yl)-6,7-dihydro-1H-imidazo[4,5-c)pyridin-5(4H)-yl)methanone] | > 5000 nM
O=C(c1nnc(-c2cc(C(F)(F)F)ccn2)o1)N1CCc2[nH]cnc2[C@@H]1c1cc2ccccn2n1 [Example 668, (R)-(4-(pyrazolo[1,5-a]pyridin-2-yl)-6,7-dihydro-1H-imidazo[4,5-c]pyridin-5(4H)-yl)(5-(4-(trifluoromethyl)pyridin-2-yl)-1,3,4-oxadiazol-2-yl)methanone] | > 5000 nM
O=C(c1nnc(-c2cc(C(F)(F)F)ccn2)o1)N1CCc2[nH]cnc2[C@H]1c1cc2ccccn2n1 [Example 669, (S)-(4-(pyrazolo[1,5-a]pyridin-2-yl)-6,7-dihydro-1H-imidazo[4,5-c]pyridin-5(4H)-yl)(5-(4-(trifluoromethyl)pyridin-2-yl)-1,3,4-oxadiazol-2-yl)methanone] | < 500 nM
CC(C)(O)c1nc(C(F)F)c(C(=O)N2CCc3[nH]cnc3[C@H]2c2cc3ccccn3n2)o1 [Example 670, (S)-(4-(difluoromethyl)-2-(2-hydroxypropan-2-yl)oxazol-5-yl)(4-(pyrazolo[1,5-a]pyridin-2-yl)-6,7-dihydro-1H-imidazo[4,5-c]pyridin-5(4H)-yl)methanone] | < 500 nM
CC(C)(O)c1nc(C(F)F)c(C(=O)N2CCc3[nH]cnc3[C@@H]2c2cc3ccccn3n2)o1 [Example 671, (R)-(4-(difluoromethyl)-2-(2-hydroxypropan-2-yl)oxazol-5-yl)(4-(pyrazolo[1,5-a]pyridin-2-yl)-6,7-dihydro-1H-imidazo[4,5-c]pyridin-5(4H)-yl)methanone] | > 5000 nM
Cc1ccc(-c2nnc(C(=O)N3CCc4[nH]cnc4[C@@H]3c3cc4ccccn4n3)o2)nc1 [Example 672, (R)-(5-(5-methylpyridin-2-yl)-1,3,4-oxadiazol-2-yl)(4-(pyrazolo[1,5-a]pyridin-2-yl)-6,7-dihydro-1H-imidazo[4,5-c]pyridin-5(4H)-yl)methanone] | > 5000 nM
Cc1ccc(-c2nnc(C(=O)N3CCc4[nH]cnc4[C@H]3c3cc4ccccn4n3)o2)nc1 [Example 673, (S)-(5-(5-methylpyridin-2-yl)-1,3,4-oxadiazol-2-yl)(4-(pyrazolo[1,5-a]pyridin-2-yl)-6,7-dihydro-1H-imidazo[4,5-c]pyridin-5(4H)-yl)methanone] | 500 to 1000 nM
O=C(c1cn(-c2ccccn2)nc1Cl)N1CCc2[nH]cnc2[C@H]1c1cc2ccccn2n1 [Example 674, (S)-(3-chloro-1-(pyridin-2-yl)-1H-pyrazol-4-yl)(4-(pyrazolo[1,5-a]pyridin-2-yl)-6,7-dihydro-1H-imidazo[4,5-c]pyridin-5(4H)-yl)methanone] | 1000 to 5000 nM
O=C(c1cn(-c2ccccn2)nc1Cl)N1CCc2[nH]cnc2[C@@H]1c1cc2ccccn2n1 [Example 675, (R)-(3-chloro-1-(pyridin-2-yl)-1H-pyrazol-4-yl)(4-(pyrazolo[1,5-a]pyridin-2-yl)-6,7-dihydro-1H-imidazo[4,5-c]pyridin-5(4H)-yl)methanone] | > 5000 nM
CC(C)(O)c1nc(Br)c(C(=O)N2CCc3[nH]cnc3[C@H]2c2cc3ccccn3n2)o1 [Example 676, (S)-(4-bromo-2-(2-hydroxypropan-2-yl)oxazol-5-yl)(4-(pyrazolo[1,5-a]pyridin-2-yl)-6,7-dihydro-1H-imidazo[4,5-c]pyridin-5(4H)-yl)methanone] | < 500 nM
CC(C)(O)c1nc(Br)c(C(=O)N2CCc3[nH]cnc3[C@@H]2c2cc3ccccn3n2)o1 [Example 677, (R)-(4-bromo-2-(2-hydroxypropan-2-yl)oxazol-5-yl)(4-(pyrazolo[1,5-a]pyridin-2-yl)-6,7-dihydro-1H-imidazo[4,5-c]pyridin-5(4H)-yl)methanone] | > 5000 nM
Cn1cc(-c2nnc(C(=O)N3CCc4[nH]cnc4[C@H]3c3cc4ccccn4n3)o2)c(C(F)(F)F)n1 [Example 678, (S)-(5-(1-methyl-3-(trifluoromethyl)-1H-pyrazol-4-yl)-1,3,4-oxadiazol-2-yl)(4-(pyrazolo[1,5-a]pyridin-2-yl)-6,7-dihydro-1H-imidazo[4,5-c]pyridin-5(4H)-yl)methanone] | 1000 to 5000 nM
Cn1cc(-c2nnc(C(=O)N3CCc4[nH]cnc4[C@@H]3c3cc4ccccn4n3)o2)c(C(F)(F)F)n1 [Example 679, (R)-(5-(1-methyl-3-(trifluoromethyl)-1H-pyrazol-4-yl)-1,3,4-oxadiazol-2-yl)(4-(pyrazolo[1,5-a]pyridin-2-yl)-6,7-dihydro-1H-imidazo[4,5-c]pyridin-5(4H)-yl)methanone] | > 5000 nM
Cn1nc(Cl)cc1C(=O)N1CCc2[nH]cnc2[C@H]1c1cc2ccccn2n1 [Example 680, (S)-(3-chloro-1-methyl-1H-pyrazol-5-yl)(4-(pyrazolo[1,5-a]pyridin-2-yl)-6,7-dihydro-1H-imidazo[4,5-c]pyridin-5(4H)-yl)methanone] | < 500 nM
N#Cc1ncoc1C(=O)N1CCc2[nH]cnc2[C@H]1c1cc2ccc(Br)cn2n1 [Example 682, (S)-5-(4-(6-bromopyrazolo[1,5-a]pyridin-2-yl)-4,5,6,7-tetrahydro-1H-imidazo[4,5-c]pyridine-5-carbonyl)oxazole-4-carbonitrile] | 500 to 1000 nM
N#Cc1ncoc1C(=O)N1CCc2[nH]cnc2[C@@H]1c1cc2ccc(Br)cn2n1 [Example 683, (R)-5-(4-(6-bromopyrazolo[1,5-a]pyridin-2-yl)-4,5,6,7-tetrahydro-1H-imidazo[4,5-c]pyridine-5-carbonyl)oxazole-4-carbonitrile] | > 5000 nM
N#Cc1ncoc1C(=O)N1CCc2[nH]cnc2[C@H]1c1cc2ccc(Cl)cn2n1 [Example 684, (S)-5-(4-(6-chloropyrazolo[1,5-a]pyridin-2-yl)-4,5,6,7-tetrahydro-1H-imidazo[4,5-c]pyridine-5-carbonyl)oxazole-4-carbonitrile] | 500 to 1000 nM
N#Cc1ncoc1C(=O)N1CCc2[nH]cnc2[C@H]1c1cc2c(Cl)cccn2n1 [Example 686, (S)-5-(4-(4-chloropyrazolo[1,5-a]pyridin-2-yl)-4,5,6,7-tetrahydro-1H-imidazo[4,5-c]pyridine-5-carbonyl)oxazole-4-carbonitrile] | < 500 nM
N#Cc1ncoc1C(=O)N1CCc2[nH]cnc2[C@@H]1c1cc2c(Cl)cccn2n1 [Example 687, (R)-5-(4-(4-chloropyrazolo[1,5-a]pyridin-2-yl)-4,5,6,7-tetrahydro-1H-imidazo[4,5-c]pyridine-5-carbonyl)oxazole-4-carbonitrile] | 1000 to 5000 nM

Reference: patent US20230365592A1 (Agios Pharmaceuticals, Inc., priority 2022, published 2023)
